Measurements: ChEMBL document CHEMBL1201862, “PubChem BioAssay data set” (2004)
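Protocol summary: plate cells (96-well), add compound at 5 concentrations, incubate 48 h, interpolate endpoints linearly. The concentration for 50% growth inhibition is given as GI50.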 The source made the active and inactive calls. Rule as the data show it: active = GI50 up to about 1.1 µM and inactive = higher.

How the values were obtained:
Assay in all cases: inhibition of tumour cell growth, NCI panel, 48 h
DMS-273 = test system: DMS-273
LXFL 529 = test system: LXFL 529
HCT-116 = test system: HCT-116
SW-620 = test system: SW-620
M14 = test system: M14
HL-60 = test system: HL-60
SF-268 = test system: SF-268
COLO 205 = test system: COLO 205
K562 = test system: K562
Malme-3M = test system: Malme-3M
SNB-75 = test system: SNB-75
XF498 = test system: XF498
M19-MEL = test system: M19-MEL
SF-539 = test system: SF-539
A498 = test system: A498
EKVX = test system: EKVX
ACHN = test system: ACHN
U-251 = test system: U-251
OVCAR-8 = test system: OVCAR-8
UACC-62 = test system: UACC-62
SNB-19 = test system: SNB-19
HOP-62 = test system: HOP-62
MOLT-4 = test system: MOLT-4
OVCAR-4 = test system: OVCAR-4
UACC-257 = test system: UACC-257
HCT-15 = test system: HCT-15
KM12 = test system: KM12
NCI-H522 = test system: NCI-H522
NCI-H460 = test system: NCI-H460
SR = test system: SR
OVCAR-3 = test system: OVCAR-3
UO-31 = test system: UO-31
HT-29 = test system: HT-29
CAKI-1 = test system: CAKI-1
SF-295 = test system: SF-295
RXF 631 = test system: RXF 631
SK-MEL-28 = test system: SK-MEL-28
SK-MEL-5 = test system: SK-MEL-5
DLD-1 = test system: DLD-1
IGROV-1 = test system: IGROV-1
CCRF-CEM = test system: CCRF-CEM
786-0 = test system: 786-0
HOP-92 = test system: HOP-92
NCI-H226 = test system: NCI-H226
NCI-H23 = test system: NCI-H23
RXF 393 = test system: RXF 393
OVCAR-5 = test system: OVCAR-5
SK-OV-3 = test system: SK-OV-3
KM-20L2 = test system: KM-20L2
A549 = test system: A549
SN12C = test system: SN12C
DMS-114 = test system: DMS-114
RPMI-8226 = test system: RPMI-8226
HCC 2998 = test system: HCC 2998
SK-MEL-2 = test system: SK-MEL-2
SNB-78 = test system: SNB-78
MDA-N = test system: MDA-N
TK-10 = test system: TK-10
Hs-578T = test system: Hs-578T
MDA-MB-435 = test system: MDA-MB-435
MDA-MB-231 = test system: MDA-MB-231
PC-3 = test system: PC-3
DU-145 = test system: DU-145
T47D = test system: T47D
MCF7 = test system: MCF7
LOX IMVI = test system: LOX IMVI
BT-549 = test system: BT-549
HOP-18 = test system: HOP-18

COc1ccc(C(=O)C(C(=O)CC(=O)Nc2cccc(C(F)(F)F)c2)c2ccc(OC)cc2)cc1 (stereo not given)
GI50 (DMS-273): > 100 µM (inactive)
GI50 (LXFL 529): > 100 µM (inactive)
GI50 (HCT-116): > 100 µM (inactive)
GI50 (SW-620): > 100 µM (inactive)
GI50 (M14): > 100 µM (inactive)
GI50 (HL-60): > 100 µM (inactive)
GI50 (SF-268): > 100 µM (inactive)
GI50 (COLO 205): > 100 µM (inactive)
GI50 (K562): > 100 µM (inactive)
GI50 (Malme-3M): > 100 µM (inactive)
GI50 (SNB-75): 30.8 µM (inactive)
GI50 (XF498): > 100 µM (inactive)
GI50 (M19-MEL): > 100 µM (inactive)
GI50 (SF-539): > 100 µM (inactive)
GI50 (A498): > 100 µM (inactive)
GI50 (EKVX): > 100 µM (inactive)
GI50 (ACHN): > 100 µM (inactive)
GI50 (U-251): > 100 µM (inactive)
GI50 (OVCAR-8): > 100 µM (inactive)
GI50 (UACC-62): > 100 µM (inactive)
GI50 (SNB-19): > 100 µM (inactive)
GI50 (HOP-62): > 100 µM (inactive)
GI50 (MOLT-4): > 100 µM (inactive)
GI50 (OVCAR-4): > 100 µM (inactive)
GI50 (UACC-257): > 100 µM (inactive)
GI50 (HCT-15): > 100 µM
GI50 (KM12): > 100 µM (inactive)
GI50 (NCI-H522): > 100 µM (inactive)
GI50 (NCI-H460): > 100 µM (inactive)
GI50 (SR): > 100 µM (inactive)
GI50 (OVCAR-3): > 100 µM (inactive)
GI50 (UO-31): > 100 µM (inactive)
GI50 (HT-29): > 100 µM (inactive)
GI50 (CAKI-1): > 100 µM (inactive)
GI50 (SF-295): > 100 µM (inactive)
GI50 (RXF 631): > 100 µM (inactive)
GI50 (SK-MEL-28): > 100 µM (inactive)
GI50 (SK-MEL-5): > 100 µM (inactive)
GI50 (DLD-1): > 100 µM (inactive)
GI50 (IGROV-1): > 100 µM (inactive)
GI50 (CCRF-CEM): > 100 µM (inactive)
GI50 (786-0): > 100 µM (inactive)
GI50 (HOP-92): > 100 µM (inactive)
GI50 (NCI-H226): > 100 µM (inactive)
GI50 (NCI-H23): > 100 µM (inactive)
GI50 (RXF 393): 78.9 µM (inactive)
GI50 (OVCAR-5): 7.73 µM (inactive)
GI50 (SK-OV-3): > 100 µM (inactive)
GI50 (KM-20L2): > 100 µM (inactive)
GI50 (A549): > 100 µM (inactive)
GI50 (SN12C): > 100 µM (inactive)
GI50 (DMS-114): > 100 µM (inactive)
GI50 (RPMI-8226): > 100 µM (inactive)
GI50 (HCC 2998): > 100 µM (inactive)
GI50 (SK-MEL-2): > 100 µM (inactive)
GI50 (SNB-78): > 100 µM (inactive)

CC1=C(C(=O)Nc2ccccc2C)C(c2ccc(C3C(C(=O)Nc4ccccc4C)=C(C)NC(C)=C3C(=O)Nc3ccccc3C)cc2)C(C(=O)Nc2ccccc2C)=C(C)N1
GI50 (DMS-273): 3.16 µM (inactive)
GI50 (MDA-N): 5.6 µM (inactive)
GI50 (LXFL 529): 2.84 µM (inactive)
GI50 (HCT-116): 2.21 µM (inactive)
GI50 (SW-620): 2.49 µM (inactive)
GI50 (M14): 2.82 µM (inactive)
GI50 (HL-60): 2.53 µM (inactive)
GI50 (SF-268): 2.58 µM (inactive)
GI50 (COLO 205): 3.7 µM (inactive)
GI50 (K562): 2.87 µM (inactive)
GI50 (Malme-3M): 2.19 µM (inactive)
GI50 (TK-10): 10.7 µM (inactive)
GI50 (SNB-75): 14.4 µM (inactive)
GI50 (Hs-578T): 14 µM (inactive)
GI50 (XF498): 15.8 µM (inactive)
GI50 (MDA-MB-435): 4.32 µM (inactive)
GI50 (MDA-MB-231): 2.29 µM (inactive)
GI50 (M19-MEL): 3.83 µM (inactive)
GI50 (SF-539): 4.44 µM (inactive)
GI50 (A498): 15.5 µM (inactive)
GI50 (EKVX): 7.31 µM (inactive)
GI50 (ACHN): 4.52 µM (inactive)
GI50 (U-251): 2.25 µM (inactive)
GI50 (OVCAR-8): 2.8 µM (inactive)
GI50 (PC-3): 4.39 µM (inactive)
GI50 (UACC-62): 2.03 µM (inactive)
GI50 (SNB-19): 11.9 µM (inactive)
GI50 (HOP-62): 21.1 µM (inactive)
GI50 (DU-145): 15.9 µM (inactive)
GI50 (MOLT-4): 2.48 µM (inactive)
GI50 (OVCAR-4): 8.99 µM (inactive)
GI50 (UACC-257): 2.8 µM (inactive)
GI50 (HCT-15): 9.4 µM
GI50 (KM12): 2.16 µM (inactive)
GI50 (NCI-H522): 1.89 µM (inactive)
GI50 (NCI-H460): 9.04 µM (inactive)
GI50 (SR): 2.67 µM (inactive)
GI50 (OVCAR-3): 6.67 µM (inactive)
GI50 (UO-31): 13.4 µM (inactive)
GI50 (HT-29): 2.03 µM (inactive)
GI50 (T47D): 4.24 µM (inactive)
GI50 (CAKI-1): 7.1 µM (inactive)
GI50 (SF-295): 4.57 µM (inactive)
GI50 (RXF 631): 12.8 µM (inactive)
GI50 (SK-MEL-28): 2.04 µM (inactive)
GI50 (SK-MEL-5): 12.1 µM (inactive)
GI50 (MCF7): 3.37 µM (inactive)
GI50 (DLD-1): 2.27 µM (inactive)
GI50 (IGROV-1): 3.16 µM (inactive)
GI50 (CCRF-CEM): 1.95 µM (inactive)
GI50 (786-0): 3.47 µM (inactive)
GI50 (HOP-92): 8.38 µM (inactive)
GI50 (NCI-H226): 14.1 µM (inactive)
GI50 (LOX IMVI): 1.63 µM (inactive)
GI50 (NCI-H23): 3.21 µM (inactive)
GI50 (RXF 393): 4.31 µM (inactive)
GI50 (OVCAR-5): 14.1 µM (inactive)
GI50 (SK-OV-3): 15.3 µM (inactive)
GI50 (KM-20L2): 3.74 µM (inactive)
GI50 (BT-549): 2.75 µM (inactive)
GI50 (A549): 10.8 µM (inactive)
GI50 (SN12C): 1.71 µM (inactive)
GI50 (DMS-114): 3.75 µM (inactive)
GI50 (RPMI-8226): 2.51 µM (inactive)
GI50 (HCC 2998): 4.51 µM (inactive)
GI50 (SK-MEL-2): 9.23 µM (inactive)
GI50 (SNB-78): 4.16 µM (inactive)

[C-]#[N+][C@@H]1C2[C@H](CC[C@@]1(C)O)C(=C)CC[C@@H]2[C@@]1(C)CC[C@H](Cl)C(C)(C)O1 (stereo not given in full)
GI50 (LXFL 529): 3.57 µM (inactive)
GI50 (HCT-116): 2.23 µM (inactive)
GI50 (SW-620): 5.64 µM (inactive)
GI50 (M14): 2.81 µM (inactive)
GI50 (HL-60): 1.92 µM (inactive)
GI50 (SF-268): 11 µM (inactive)
GI50 (HOP-18): 2.71 µM (inactive)
GI50 (COLO 205): 3.2 µM (inactive)
GI50 (K562): 3.24 µM (inactive)
GI50 (Malme-3M): 5.28 µM (inactive)
GI50 (TK-10): 16.2 µM (inactive)
GI50 (SNB-75): 7.87 µM (inactive)
GI50 (XF498): 4.71 µM (inactive)
GI50 (M19-MEL): 4.12 µM (inactive)
GI50 (SF-539): 6.67 µM (inactive)
GI50 (A498): 18.5 µM (inactive)
GI50 (EKVX): 7.14 µM (inactive)
GI50 (ACHN): 4.22 µM (inactive)
GI50 (U-251): 8.87 µM (inactive)
GI50 (OVCAR-8): 3.29 µM (inactive)
GI50 (UACC-62): 3.59 µM (inactive)
GI50 (SNB-19): 7.1 µM (inactive)
GI50 (OVCAR-4): 3.24 µM (inactive)
GI50 (UACC-257): 8.32 µM (inactive)
GI50 (HCT-15): 2.55 µM
GI50 (KM12): 3.53 µM (inactive)
GI50 (NCI-H522): 4.42 µM (inactive)
GI50 (NCI-H460): 8.3 µM (inactive)
GI50 (OVCAR-3): 1.31 µM (inactive)
GI50 (UO-31): 2.06 µM (inactive)
GI50 (HT-29): 11.9 µM (inactive)
GI50 (CAKI-1): 4.82 µM (inactive)
GI50 (SF-295): 12.1 µM (inactive)
GI50 (RXF 631): 6.62 µM (inactive)
GI50 (SK-MEL-28): 26.3 µM (inactive)
GI50 (SK-MEL-5): 3.02 µM (inactive)
GI50 (DLD-1): 2.88 µM (inactive)
GI50 (IGROV-1): 3.49 µM (inactive)
GI50 (CCRF-CEM): 2.77 µM (inactive)
GI50 (786-0): 10.3 µM (inactive)
GI50 (NCI-H226): 4.46 µM (inactive)
GI50 (LOX IMVI): 3.95 µM (inactive)
GI50 (NCI-H23): 4.75 µM (inactive)
GI50 (RXF 393): 14 µM (inactive)
GI50 (SK-OV-3): 25.4 µM (inactive)
GI50 (KM-20L2): 6.68 µM (inactive)
GI50 (A549): 8.02 µM (inactive)
GI50 (SN12C): 4.38 µM (inactive)
GI50 (DMS-114): 1.5 µM (inactive)
GI50 (RPMI-8226): 2.51 µM (inactive)
GI50 (HCC 2998): 11.1 µM (inactive)
GI50 (SK-MEL-2): 6.3 µM (inactive)
